In brackets after ≈: the same amount, converted by molar mass. Read-outs that look alike come from different tables or passages of the source.
What was measured:
[1] = system: Streptococcus pneumoniae Park I; test: microbe, parasite or virus in culture; type: cell-based; conditions: Streptococcus pneumoniae
Experimental: (§1) The MIC's s in Table III were determined by standard agar-dilution assays. The MIC's in Table IV were obtained using a conventional broth-dilution microtiter test.

Streptococcus sp. 19F = test: MIC, conventional broth-dilution microtiter test (Table IV); type: cell-based
Experimental: as §1

[2] = system: Pasteurella hemolytica 41D; test: as above; type: cell-based
Experimental: as §1

[3] = system: Mycoplasma gallisepticum 29C; test: as above; type: cell-based; conditions: Mycoplasmoides gallisepticum, 29C
Experimental: as §1

[4] = system: Pasteurella multocida 22A; test: as above; type: cell-based
Experimental: as §1

[5] = system: Staphylococcus aureus 19C; test: as above; type: cell-based; conditions: Staphylococcus aureus, 19C
Experimental: as §1

[6] = system: Pasteurella multocida 40G; test: as above; type: cell-based
Experimental: as §1

[7] = system: Mycoplasma gallisepticum 36H; test: as above; type: cell-based; conditions: Mycoplasmoides gallisepticum
Experimental: as §1

[8] = system: Pasteurella hemolytica 23C; test: as above; type: cell-based
Experimental: as §1

[9] = system: Mycoplasma gallisepticum 15E; test: as above; type: cell-based; conditions: Mycoplasmoides gallisepticum
Experimental: as §1

Mycoplasma hyorhinis 29E = test: as above; type: cell-based; conditions: broth-dilution microtiter; Mycoplasma hyorhinis 29E; read-out: MIC
Experimental: as §1

[10] = system: Pasteurella hemolytica 22C; test: as above; type: cell-based
Experimental: as §1

[11] = system: Pasteurella multocida 17E; test: as above; type: cell-based; conditions: Pasteurella multocida, 17E
Experimental: as §1

[12] = system: Bordetella bronchisepticum 95B; test: as above; type: cell-based
Experimental: as §1

[13] = system: Mycoplasma hyopneumoniae S5972; test: as above; type: cell-based; conditions: Mesomycoplasma hyopneumoniae
Experimental: as §1

[14] = system: Pasteurella multocida 68C; test: as above; type: cell-based
Experimental: as §1

Mycoplasma synoviae 40A = test: as above; type: cell-based; conditions: Mycoplasmopsis synoviae, 40A
Experimental: as §1

[15] = system: Pasteurella multocida 60A; test: as above; type: cell-based; conditions: Pasteurella multocida, 60A
Experimental: as §1

[16] = system: Streptococcous pneumoniae; test: ED50 vs. Streptococcous pneumoniae experimental infection in mice (Table VII); type: in vivo; conditions: Mus musculus, sc, subcutaneous, two doses, read-out: ED50 Subcutaneous
Experimental: (§2) Certain formula 1a compounds have also shown in vivo antimicrobial activity against experimental bacterial infections. When two doses of test compound were administered to mice in experimental infections, the activity observed was measured as an ED50 value [effective dose in mg/kg to protect 50% of the test animals: see Warren Wick, et al., J. Bacteriol. 81, 233-235 (1961)].

[17] = system: Staphylococcus epidermidis EPI1; test: MIC, standard agar-dilution assay (Table III); type: cell-based; conditions: Staphylococcus epidermidis, EPI1
Experimental: as §1

[18] = system: Streptococcus Group D 2041; test: MIC, standard agar-dilution assay (Table III); type: cell-based; conditions: GROUPD2041
Experimental: as §1

[19] = system: Streptococcus pyogenes C203; test: MIC, standard agar-dilution assay (Table III); type: cell-based
Experimental: as §1

[20] = system: Staphylococcus aureus S13E; test: MIC, standard agar-dilution assay (Table III); type: cell-based
Experimental: as §1

[21] = system: Haemophilus influenzae 76; test: MIC, standard agar-dilution assay (Table III); type: cell-based
Experimental: as §1

[22] = system: Haemophilus influenzae C.L.; test: MIC, standard agar-dilution assay (Table III); type: cell-based; conditions: Haemophilus influenzae
Experimental: as §1

[23] = system: Streptococcus Group D X66; test: MIC, standard agar-dilution assay (Table III); type: cell-based
Experimental: as §1

[24] = system: Staphylococcus aureus X400; test: MIC, standard agar-dilution assay (Table III); type: cell-based; conditions: Staphylococcus aureus, X400
Experimental: as §1

[25] = system: Staphylococcus aureus V41; test: MIC, standard agar-dilution assay (Table III); type: cell-based; conditions: Staphylococcus aureus V41, penicillin-resistant strain
Experimental: as §1

[26] = system: Staphylococcus epidermidis 222; test: MIC, standard agar-dilution assay (Table III); type: cell-based
Experimental: as §1

[27] = system: Staphylococcus aureus X1.1; test: MIC, standard agar-dilution assay (Table III); type: cell-based
Experimental: as §1

Pasteurella multocida = test: Activity in Pasteurella multocida-infected one-day-old chicks (Table VIII); type: in vivo; conditions: subcutaneous 30 mg/kg × 2, 1 and 4 hours post-challenge, all non-medicated chicks died within 24 hours
Experimental: Table VIII summarizes the results of tests in which illustrative compounds were evaluated against a Pasteurella infection in one-day-old chicks. The compounds were administered parenterally after challenge of the chicks with Pasteurella multocida (0.1 mL of a 10^-4 dilution of a twenty-hour tryptose broth culture of an avian P. multocida given subcutaneously). In these tests, all non-medicated infected chicks died within 24 hours of Pasteurella challenge. In the tests summarized in Table VIII, the compounds were administered by subcutaneous injection at a dosage of 30 mg/kg, 1 and 4 hours post-challenge of the chicks with P. multocida.

Streptococcus pyogenes = test: ED50 vs Streptococcus pyogenes experimental infection in mice (Table VI); type: in vivo; conditions: two doses, several values = results from more than one test
Experimental: as §2

Staphylococcus aureus = test: ED50 vs. Staphylococcus aureus experimental infection in mice (Table V); type: in vivo; conditions: sc, subcutaneous, two doses, dose protecting 50% of animals, read-out: ED50 Subcutaneous
Experimental: as §2

SMILES	MIC (Streptococcus sp. 19F) [µg/mL]	MIC [3] [µg/mL]	MIC [5] [µg/mL]	MIC (Mycoplasma hyorhinis 29E) [µg/mL]	MIC [11] [µg/mL]	MIC [12] [µg/mL]	MIC (Mycoplasma synoviae 40A) [µg/mL]	MIC [15] [µg/mL]	ED50 [16] [mg/kg]	MIC [17] [µg/mL]	MIC [18] [µg/mL]	MIC [20] [µg/mL]	MIC [22] [µg/mL]	MIC [23] [µg/mL]	MIC [24] [µg/mL]	MIC [25] [µg/mL]	MIC [27] [µg/mL]	Number of Deaths/Number Treated (Pasteurella multocida)	ED50 (Streptococcus pyogenes; po, read-out: ED50 Oral) [mg/kg]	ED50 (Staphylococcus aureus) [mg/kg]	also measured
CCC1OC(=O)CC(O)C(C)C(OC2OC(C)C(O)C(N(C)C)C2O)C(CC=O)CC(C)C(=O)C=CC(C)=CC1CNC12CC3CC(CC(C3)C1)C2 (stereo not drawn) [Compound 1, 23-deoxy-23-(1-adamantanylamino)-OMT]	< 0.048	0.097 (≈ 0.133 µM)	0.78 (≈ 1.07 µM)	0.39 (≈ 0.534 µM)	0.78 (≈ 1.07 µM)	6.25 (≈ 8.55 µM)	< 0.048	0.78 (≈ 1.07 µM)	2.5	0.5 (≈ 0.684 µM)	0.5 (≈ 0.684 µM)	0.5 (≈ 0.684 µM)	2 (≈ 2.74 µM)	0.5 (≈ 0.684 µM)	0.5 (≈ 0.684 µM)	0.5 (≈ 0.684 µM)	0.5 (≈ 0.684 µM)	0/10	> 100	3.58	MIC ([1]; read-out: MIC): 0.06 µg/mL (≈ 0.0821 µM); MIC ([2]; Pasteurella, 41D): 1.56 µg/mL (≈ 2.13 µM); MIC ([4]; Pasteurella multocida, 22A): 0.78 µg/mL (≈ 1.07 µM); MIC ([6]; Pasteurella multocida, 40G): 0.78 µg/mL (≈ 1.07 µM); MIC ([7]; broth-dilution microtiter, Mycoplasma gallisepticum 36H, read-out: MIC): 6.25 µg/mL (≈ 8.55 µM); MIC ([8]; Pasteurella, 23C): 1.56 µg/mL (≈ 2.13 µM); MIC ([9]; broth-dilution microtiter, Mycoplasma gallisepticum 15E, read-out: MIC): 6.25 µg/mL (≈ 8.55 µM); MIC ([10]; Pasteurella, 22C): 3.12 µg/mL (≈ 4.27 µM); MIC ([13]; broth-dilution microtiter, Mycoplasma hyopneumoniae S5972, read-out: MIC): < 0.024 µg/mL; MIC ([14]; Pasteurella multocida, 68C): 0.78 µg/mL (≈ 1.07 µM); MIC ([19]; agar dilution, Streptococcus pyogenes C203, read-out: MIC): 0.125 µg/mL (≈ 0.171 µM); MIC ([21]; agar dilution, Haemophilus influenzae 76, ampicillin-resistant strain, read-out: MIC): 0.5 µg/mL (≈ 0.684 µM); MIC ([26]; agar dilution, Staphylococcus epidermidis 222, read-out: MIC): 0.125 µg/mL (≈ 0.171 µM); ED50 Oral (Streptococcus pyogenes; oral): 81.8 mg/kg × 2
CCC1OC(=O)CC(O)C(C)C(OC2OC(C)C(O)C(N(C)C)C2O)C(CC=O)CC(C)C(=O)C=CC(C)=CC1CN1CC2CCC(CC2)C1 (stereo not drawn) [Compound 17, 23-(3-azabicyclo[3.2.2]nonan-3-yl)-OMT]	0.39 (≈ 0.553 µM)	< 0.048	0.78 (≈ 1.11 µM)	0.39 (≈ 0.553 µM)	0.78 (≈ 1.11 µM)	6.25 (≈ 8.87 µM)	< 0.048	0.78 (≈ 1.11 µM)	> 10	0.5 (≈ 0.709 µM)	1 (≈ 1.42 µM)	0.5 (≈ 0.709 µM)	2 (≈ 2.84 µM)	0.5 (≈ 0.709 µM)	0.5 (≈ 0.709 µM)	0.5 (≈ 0.709 µM)	0.5 (≈ 0.709 µM)	10/10	> 100	2.31	MIC [1]: 0.06 µg/mL (≈ 0.0851 µM); MIC ([2]; broth-dilution microtiter, Pasteurella hemolytica 41D, read-out: MIC): 0.39 µg/mL (≈ 0.553 µM); MIC ([4]; broth-dilution microtiter, Pasteurella multocida 22A, read-out: MIC): 0.39 µg/mL (≈ 0.553 µM); MIC ([6]; broth-dilution microtiter, Pasteurella multocida 40G, read-out: MIC): 0.39 µg/mL (≈ 0.553 µM); MIC ([7]; 36H): 50 µg/mL (≈ 70.9 µM); MIC ([8]; broth-dilution microtiter, Pasteurella hemolytica 23C, read-out: MIC): 0.39 µg/mL (≈ 0.553 µM); MIC ([9]; 15E): 50 µg/mL (≈ 70.9 µM); MIC ([10]; broth-dilution microtiter, Pasteurella hemolytica 22C, read-out: MIC): 0.39 µg/mL (≈ 0.553 µM); MIC ([13]; S5972): 0.048 µg/mL (≈ 0.0681 µM); MIC ([14]; broth-dilution microtiter, Pasteurella multocida 68C, read-out: MIC): 0.39 µg/mL (≈ 0.553 µM); MIC ([19]; Streptococcus pyogenes, C203): 0.25 µg/mL (≈ 0.355 µM); MIC ([21]; Haemophilus influenzae, 76): 2 µg/mL (≈ 2.84 µM); MIC ([26]; Staphylococcus epidermidis, 222): 0.25 µg/mL (≈ 0.355 µM); ED50 (Streptococcus pyogenes; sc, subcutaneous, read-out: ED50 Subcutaneous): 9.09 mg/kg; ED50 Subcutaneous (Streptococcus pyogenes; subcutaneous): > 10 mg/kg × 2
